Laboratory results from patent publication US6939989B2, “Side-chain halogenated amino dicarboxylic acid derivatives as medicaments for treating cardiovascular diseases” (Bayer Aktiengesellschaft, priority 2001, dated 2005).

Tests used:
Heme-containing sGC = molecular target: T1, Heme-containing sGC (Rattus norvegicus, UniProt P20595); test: Stimulation of recombinant soluble guanylate cyclase (sGC) in vitro, heme-containing enzyme; type: biochemical; conditions: for Stimulation (n-fold), heme-containing sGC, DEA/NO alone: Ex. 6 0 μM
T1 construct: made in house; host or cells: Sf9 insect cells (baculovirus)
T1 sequence (P20595 1-619): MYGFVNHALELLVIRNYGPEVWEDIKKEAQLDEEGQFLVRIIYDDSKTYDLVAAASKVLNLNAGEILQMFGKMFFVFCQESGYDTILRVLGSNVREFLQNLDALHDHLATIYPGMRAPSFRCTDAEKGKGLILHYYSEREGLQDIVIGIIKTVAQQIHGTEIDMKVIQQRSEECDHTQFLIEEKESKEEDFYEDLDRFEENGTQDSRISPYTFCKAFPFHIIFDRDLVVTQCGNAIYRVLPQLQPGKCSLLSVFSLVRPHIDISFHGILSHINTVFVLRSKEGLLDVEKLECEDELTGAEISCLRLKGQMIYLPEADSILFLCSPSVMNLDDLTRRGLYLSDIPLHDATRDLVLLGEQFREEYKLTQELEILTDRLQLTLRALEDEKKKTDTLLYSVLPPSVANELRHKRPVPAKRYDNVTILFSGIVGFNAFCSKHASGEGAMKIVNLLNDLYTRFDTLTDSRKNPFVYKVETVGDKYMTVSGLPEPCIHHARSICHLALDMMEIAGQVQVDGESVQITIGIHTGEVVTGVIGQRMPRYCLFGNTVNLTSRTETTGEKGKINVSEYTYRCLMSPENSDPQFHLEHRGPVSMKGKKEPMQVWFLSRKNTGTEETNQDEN
T1 sequence (P19686 1-690 partner): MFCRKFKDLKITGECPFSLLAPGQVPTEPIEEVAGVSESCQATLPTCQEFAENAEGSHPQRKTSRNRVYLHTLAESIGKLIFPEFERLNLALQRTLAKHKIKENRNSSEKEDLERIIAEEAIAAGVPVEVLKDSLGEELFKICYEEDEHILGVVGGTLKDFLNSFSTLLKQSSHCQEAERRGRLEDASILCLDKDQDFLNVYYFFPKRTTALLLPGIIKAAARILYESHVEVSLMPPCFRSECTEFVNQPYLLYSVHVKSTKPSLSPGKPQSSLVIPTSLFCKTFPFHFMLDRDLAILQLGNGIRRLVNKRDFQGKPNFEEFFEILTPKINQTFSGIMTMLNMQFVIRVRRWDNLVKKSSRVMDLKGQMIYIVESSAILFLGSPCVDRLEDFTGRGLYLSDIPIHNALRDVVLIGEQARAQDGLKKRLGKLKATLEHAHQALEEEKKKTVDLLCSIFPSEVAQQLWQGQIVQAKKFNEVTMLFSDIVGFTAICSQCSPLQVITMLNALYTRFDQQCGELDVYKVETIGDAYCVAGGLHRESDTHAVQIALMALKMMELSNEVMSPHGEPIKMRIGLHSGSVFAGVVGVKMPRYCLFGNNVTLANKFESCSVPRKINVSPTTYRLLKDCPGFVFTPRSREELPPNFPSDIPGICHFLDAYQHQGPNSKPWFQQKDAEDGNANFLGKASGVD
Protocol: The investigations of the stimulation of recombinant soluble guanylate cyclase (sGC) […] heme-dependent sGC inhibitor 1H-1,2,4-oxadiazole-(4,3a)-quinoxalin-1-one (ODQ) were carried out according to the method described in detail in the following literature reference: M. Hoenicka, E. M. Becker, H. Apeler, T. Sirichoke, H. Schroeder, R. Gerzer and J.-P. Stasch: Purified soluble guanylyl cyclase expressed in a baculovirus/Sf9 system: stimulation by YC-1, nitric oxide, and carbon oxide. J. Mol. Med. 77 (1999): 14-23.
(§1) Activation of sGC by a test substance is stated as n-fold stimulation of basal activity.

arteria saphena rings = test: Vasorelaxant effect in vitro (phenylephrine-contracted arteria saphena rings); type: cell-based, Rabbits; conditions: Oryctolagus cuniculus; rabbit arteria saphena rings, phenylephrine contraction
Protocol: Rabbits are anesthetized or killed by intravenous injection of thiopental sodium (about 50 mg/kg) and exsanguinated. The arteria saphena is removed and divided into rings 3 mm wide. The individual rings are in each case mounted on a pair of hooks of triangular shape, open at the ends and made of special wire (Remanium®) having a diameter of 0.3 mm. Under pretension, each ring is introduced into a 5 ml organ bath containing carbogen-gassed Krebs-Henseleit solution at 37° C. with the following composition (mM): NaCl: 119; KCl: 4.8; CaCl2×2H2O: 1; MgSO4×7H2O: 1.4; KH2PO4: 1.2; NaHCO3: 25; glucose: 10; bovine serum albumin: 0.001%. The force of contraction is detected with Statham UC2 cells, amplified and digitized via A/D converters (DAS-1802 HC, Keithley Instruments, Munich) and recorded in parallel on chart recorders. Contractions are generated by adding phenylephrine.
After several (generally 4) control cycles, the substance to be investigated is added in each further run in increasing dosage, and the height of the contraction reached under the influence of the test substance is compared with the height of the contraction reached in the last preceding run. The concentration necessary to reduce the height of the control value by 50% (IC50) is calculated from this. The standard application volume is 5 μl. The DMSO content in the bath solution corresponds to 0. 1%.

Heme-free sGC = molecular target: T2, Heme-free sGC (Rattus norvegicus, UniProt P20595); test: Stimulation of recombinant soluble guanylate cyclase (sGC) in vitro, heme-free enzyme; type: biochemical
T2 construct: made in house; host or cells: Sf9 insect cells (baculovirus)
T2 sequence (P20595 1-619): T1 sequence (P20595 1-619)
T2 sequence (P19686 1-690 partner): T1 sequence (P19686 1-690 partner)
Protocol: The investigations of the stimulation of recombinant soluble guanylate cyclase (sGC) and the compounds according to the invention with and without sodium nitroprusside and with and without the heme-dependent sGC inhibitor 1H-1,2,4-oxadiazole-(4,3a)-quinoxalin-1-one (ODQ) were carried out according to the method described in detail in the following literature reference: M. Hoenicka, E. M. Becker, H. Apeler, T. Sirichoke, H. Schroeder, R. Gerzer and J.-P. Stasch: Purified soluble guanylyl cyclase expressed in a baculovirus/Sf9 system: stimulation by YC-1, nitric oxide, and carbon oxide. J. Mol. Med. 77 (1999): 14-23.
The heme-free guanylate cyclase was obtained by adding Tween 20 to the sample buffer (final concentration 0.5%).
as §1

[1] = system: porcine serum-induced rat liver fibrosis; test: Antifibrotic action in vivo, porcine serum-induced rat liver fibrosis; design: species or system Female Sprague Dawley rats; conditions: seven weeks
Description: The antifibrotic action of the substances was investigated using the model of the porcine serum-induced rat liver fibrosis. Treatment with heterologous serum, for example porcine serum in rats, is a method frequently used in the literature for inducing fibrosis of the liver with subsequent cirrhosis which, in contrast to other models, causes only minimal damage and inflammation of the parenchyma cells of the liver (Bhunchet, E. and Wake, K. (1992): Role of mesenchymal cell populations in porcine serum-induced rat liver fibrosis. Hepatology 16: 1452-1473). […] After seven weeks of treatment, the animals were killed and the livers were removed in order to quantify the collagen content. […]
Fast Green was used as counterstain to enhance contrasts. In each section, the extent of liver fibrosis was determined as a percentage of the area stained by Pikrosirius Red of the total area measured. […] 64 fields of a standardized grid of 31 mm^2 were measured using a final amplification of 100. […]
To determine OH-proline according to Prockop and Udenfried (Prockop, D. J. and Udenfried, S. A. (1960): A specific method for the analysis of hydroxyproline in tissues and urine. Anal. Biochem. 1: 228-239), in each case 50-100 mg of liver tissue were dried and boiled with 6N HCl for about 17 hours. […] After 3 hours of incubation at 35° C., absorption at 573 nm was measured. […]

Compound: CCN(CC)[N+]([O-])=NO [DEA/NO, 2-(N,N-diethylamino)diazenolate 2-oxide, reference compound]
- Stimulation (n-fold), heme-containing sGC, DEA/NO alone (Heme-containing sGC; DEA/NO 0.001 μM): 5 n-fold
- Stimulation (n-fold), heme-containing sGC, DEA/NO alone (Heme-containing sGC; DEA/NO 0.01 μM): 30 n-fold
- Stimulation (n-fold), heme-containing sGC, DEA/NO alone (Heme-containing sGC; DEA/NO 0.1 μM): 124 n-fold

Compound: CC(C)(C)c1ccc(-c2ccc(COc3ccccc3CCN(CCCCC(=O)O)Cc3ccc(C(=O)O)cc3)c(F)c2)cc1 [Example 2]
- IC50 (arteria saphena rings): 0.15 nM

Compound: O=C(O)CCCCN(CCc1ccccc1OCc1ccc(-c2ccc(C(F)(F)F)cc2)cc1Cl)Cc1ccc(C(=O)O)cc1 [Example 6]
- Stimulation (n-fold), heme-containing sGC, basal (Heme-containing sGC; Ex. 6 0.001 μM): 2 n-fold
- Stimulation (n-fold), heme-containing sGC, + DEA/NO (0.001 μM) (Heme-containing sGC; Ex. 6 0.001 μM + DEA/NO 0.001 μM): 6 n-fold
- Stimulation (n-fold), heme-containing sGC, + DEA/NO (0.01 μM) (Heme-containing sGC; Ex. 6 0.001 μM + DEA/NO 0.01 μM): 32 n-fold
- Stimulation (n-fold), heme-containing sGC, + DEA/NO (0.1 μM) (Heme-containing sGC; Ex. 6 0.001 μM + DEA/NO 0.1 μM): 127 n-fold
- Stimulation (n-fold), heme-containing sGC, + ODQ (10 μM) (Heme-containing sGC; Ex. 6 0.001 μM + ODQ 10 μM): 35 n-fold
- Stimulation (n-fold), heme-containing sGC, basal (Heme-containing sGC; Ex. 6 0.01 μM): 9 n-fold
- Stimulation (n-fold), heme-containing sGC, + DEA/NO (0.001 μM) (Heme-containing sGC; Ex. 6 0.01 μM + DEA/NO 0.001 μM): 13 n-fold
- Stimulation (n-fold), heme-containing sGC, + DEA/NO (0.01 μM) (Heme-containing sGC; Ex. 6 0.01 μM + DEA/NO 0.01 μM): 39 n-fold
- Stimulation (n-fold), heme-containing sGC, + DEA/NO (0.1 μM) (Heme-containing sGC; Ex. 6 0.01 μM + DEA/NO 0.1 μM): 134 n-fold
- Stimulation (n-fold), heme-containing sGC, + ODQ (10 μM) (Heme-containing sGC; Ex. 6 0.01 μM + ODQ 10 μM): 95 n-fold
- Stimulation (n-fold), heme-containing sGC, basal (Heme-containing sGC; Ex. 6 0.1 μM): 18 n-fold
- Stimulation (n-fold), heme-containing sGC, + DEA/NO (0.001 μM) (Heme-containing sGC; Ex. 6 0.1 μM + DEA/NO 0.001 μM): 25 n-fold
- Stimulation (n-fold), heme-containing sGC, + DEA/NO (0.01 μM) (Heme-containing sGC; Ex. 6 0.1 μM + DEA/NO 0.01 μM): 52 n-fold
- Stimulation (n-fold), heme-containing sGC, + DEA/NO (0.1 μM) (Heme-containing sGC; Ex. 6 0.1 μM + DEA/NO 0.1 μM): 157 n-fold
- Stimulation (n-fold), heme-containing sGC, + ODQ (10 μM) (Heme-containing sGC; Ex. 6 0.1 μM + ODQ 10 μM): 147 n-fold
- Stimulation (n-fold), heme-containing sGC, basal (Heme-containing sGC; Ex. 6 1.0 μM): 23 n-fold
- Stimulation (n-fold), heme-containing sGC, + DEA/NO (0.001 μM) (Heme-containing sGC; Ex. 6 1.0 μM + DEA/NO 0.001 μM): 30 n-fold
- Stimulation (n-fold), heme-containing sGC, + DEA/NO (0.01 μM) (Heme-containing sGC; Ex. 6 1.0 μM + DEA/NO 0.01 μM): 53 n-fold
- Stimulation (n-fold), heme-containing sGC, + DEA/NO (0.1 μM) (Heme-containing sGC; Ex. 6 1.0 μM + DEA/NO 0.1 μM): 151 n-fold
- Stimulation (n-fold), heme-containing sGC, + ODQ (10 μM) (Heme-containing sGC; Ex. 6 1.0 μM + ODQ 10 μM): 150 n-fold
- Stimulation (n-fold), heme-containing sGC, basal (Heme-containing sGC; Ex. 6 10 μM): 25 n-fold
- Stimulation (n-fold), heme-containing sGC, + DEA/NO (0.001 μM) (Heme-containing sGC; Ex. 6 10 μM + DEA/NO 0.001 μM): 30 n-fold
- Stimulation (n-fold), heme-containing sGC, + DEA/NO (0.01 μM) (Heme-containing sGC; Ex. 6 10 μM + DEA/NO 0.01 μM): 67 n-fold
- Stimulation (n-fold), heme-containing sGC, + DEA/NO (0.1 μM) (Heme-containing sGC; Ex. 6 10 μM + DEA/NO 0.1 μM): 174 n-fold
- Stimulation (n-fold), heme-containing sGC, + ODQ (10 μM) (Heme-containing sGC; Ex. 6 10 μM + ODQ 10 μM): 159 n-fold
- Stimulation (n-fold), heme-free sGC, basal (Heme-free sGC; Ex. 6 0.001 μM): 10 n-fold
- Stimulation (n-fold), heme-free sGC, + ODQ (10 μM) (Heme-free sGC; Ex. 6 0.001 μM + ODQ 10 μM): 25 n-fold
- Stimulation (n-fold), heme-free sGC, basal (Heme-free sGC; Ex. 6 0.01 μM): 55 n-fold
- Stimulation (n-fold), heme-free sGC, + ODQ (10 μM) (Heme-free sGC; Ex. 6 0.01 μM + ODQ 10 μM): 61 n-fold
- Stimulation (n-fold), heme-free sGC, basal (Heme-free sGC; Ex. 6 0.1 μM): 81 n-fold
- Stimulation (n-fold), heme-free sGC, + ODQ (10 μM) (Heme-free sGC; Ex. 6 0.1 μM + ODQ 10 μM): 79 n-fold
- Stimulation (n-fold), heme-free sGC, basal (Heme-free sGC; Ex. 6 1.0 μM): 83 n-fold
- Stimulation (n-fold), heme-free sGC, + ODQ (10 μM) (Heme-free sGC; Ex. 6 1.0 μM + ODQ 10 μM): 83 n-fold
- Stimulation (n-fold), heme-free sGC, basal (Heme-free sGC; Ex. 6 10 μM): 84 n-fold
- Stimulation (n-fold), heme-free sGC, + ODQ (10 μM) (Heme-free sGC; Ex. 6 10 μM + ODQ 10 μM): 83 n-fold
- Reduction of collagen deposits in the liver (OH-proline, morphometric fibrosis measurement) ([1]; 0.03 mg/kg p.o. o.d.): about a half
- Reduction of collagen deposits in the liver (OH-proline, morphometric fibrosis measurement) ([1]; 0.1 mg/kg p.o. o.d.): about a half
- IC50 (arteria saphena rings): 0.17 nM

Compound: O=C(O)CCCCN(CCc1ccccc1OCc1ccc(C2=CCCCC2)cc1Cl)Cc1ccc(C(=O)O)cc1 [Example 9]
- IC50 (arteria saphena rings): 1.8 nM

Compound: O=C(O)CCCCN(CCc1ccccc1OCc1ccc(C2CCCCC2)cc1Cl)Cc1ccc(C(=O)O)cc1 [Example 12]
- IC50 (arteria saphena rings): 2 nM
